Reference: ChEMBL document CHEMBL1150985, “Macrolide-type motilin receptor agonists: Acid-stable 12-O-methyl-8,9-anhydroerythromycin A 6,9-hemiacetals” (Bioorg Med Chem Lett, 1995)
Converted amounts (≈) assume the structure as drawn.

Key:
Bacillus subtilis = assay: Compound was tested for the minimum inhibitory concentration by agar dilution method against Bacillus subtilis ATCC 6633; type: functional
Klebsiella pneumoniae = assay: Tested for the minimum inhibitory concentration by agar dilution method against Klebsiella pneumoniae IFO 3512; type: functional
Streptococcus pneumoniae = assay: Tested for the minimum inhibitory concentration by agar dilution method against Streptococcus pneumoniae No. 12; type: functional
Oryctolagus cuniculus = organism: Oryctolagus cuniculus; assay: Compound was tested for the in vitro smooth muscle contractile activity; type: functional; details: Muscle tissue
Staphylococcus aureus = assay: Tested for the minimum inhibitory concentration by agar dilution method against Staphylococcus aureus 209P; type: functional
Escherichia coli = assay: Tested for the minimum inhibitory concentration by agar dilution method against Escherichia coli NIHJ JC-2; type: functional
Motilin receptor [1] = target: T1, Motilin receptor (Homo sapiens, UniProt O43193); assay: Compound was tested for in vitro motilin receptor binding affinity after treatment with hydrochloric acid solution (pH 2.5)
Motilin receptor [2] = target: T1, Motilin receptor; assay: Compound was tested for in vitro motilin receptor binding affinity
Canis familiaris [3] = assay: Motor index (MI) was reported in vivo for smooth muscle contractile activity after i.v. administration of the compound; type: functional, Canis lupus familiaris, Muscle tissue
Canis familiaris [4] = assay: Motor index (MI) was reported in vivo for smooth muscle contractile activity after i.g. administration of the compound; type: functional, Canis lupus familiaris, Muscle tissue

T1 sequence (O43193 whole entry): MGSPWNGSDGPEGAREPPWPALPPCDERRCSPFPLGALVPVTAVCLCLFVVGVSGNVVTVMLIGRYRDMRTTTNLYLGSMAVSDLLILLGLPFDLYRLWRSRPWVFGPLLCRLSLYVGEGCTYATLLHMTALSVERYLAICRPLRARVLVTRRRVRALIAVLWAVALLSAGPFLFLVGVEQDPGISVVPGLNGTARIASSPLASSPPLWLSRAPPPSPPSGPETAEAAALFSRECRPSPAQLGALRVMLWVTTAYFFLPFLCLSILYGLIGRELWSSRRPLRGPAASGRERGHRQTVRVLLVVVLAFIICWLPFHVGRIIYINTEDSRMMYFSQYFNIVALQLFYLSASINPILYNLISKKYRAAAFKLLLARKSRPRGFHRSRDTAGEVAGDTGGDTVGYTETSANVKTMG

Structure (SMILES) | MIC (Bacillus subtilis) [µM] | MIC (Klebsiella pneumoniae) [µM] | MIC (Streptococcus pneumoniae) [µM] | EC50 (Oryctolagus cuniculus) [nM] | MIC (Staphylococcus aureus) [µM] | MIC (Escherichia coli) [µM] | IC50 (Motilin receptor [1]) [nM] | IC50 (Motilin receptor [2]) [nM] | MI100 (Canis familiaris [3]) [µg/kg] | MI100 (Canis familiaris [4]) [µg/kg]
CCC1OC(=O)C(C)C(O[C@H]2C[C@@](C)(OC)[C@@H](O)C(C)O2)C(C)[C@@H](OC2OC(C)CC(N(C)CC)[C@H]2O)[C@]2(C)CC(C)=C(O2)[C@H](C)[C@@H](O)[C@]1(C)OC (stereo not given in full) | > 200 | > 200 | 50 (≈ 37.2 µg/mL) | 22.9 | > 200 | > 200 | 8.32 | 4.68 | – | –
CCC1OC(=O)C(C)C(O[C@H]2C[C@@](C)(OC)[C@@H](O)C(C)O2)C(C)[C@@H](OC2OC(C)CC(N(C)C)[C@H]2O)[C@]2(C)CC(C)C3(O[C@]1(C)[C@H](O)[C@H]3C)O2 (stereo not given in full) | – | – | – | > 10000 | – | – | 170 | 155 | >70 | –
CC[C@H]1OC(=O)[C@H](C)[C@@H](O[C@H]2C[C@@](C)(OC)[C@@H](O)[C@H](C)O2)[C@H](C)[C@@H](OC2O[C@H](C)C[C@H](N(C)C)[C@H]2O)C2(C)CC(C)=C(O2)[C@H](C)[C@@H](O)[C@]1(C)O (single isomer, unassigned) | – | – | – | – | – | – | 224 | 3.39 | 1 | –
CC[C@H]1OC(=O)[C@H](C)[C@@H](O[C@H]2C[C@@](C)(OC)[C@@H](O)[C@H](C)O2)[C@H](C)[C@@H](OC2O[C@H](C)C[C@H](N(C)C)[C@H]2O)C(C)(O)C[C@@H](C)C(=O)[C@H](C)[C@@H](O)[C@]1(C)O (single isomer, unassigned) [ERYTHROMYCIN] | 0.39 (≈ 0.286 µg/mL) | 6.3 (≈ 4.62 µg/mL) | 0.1 (≈ 0.0734 µg/mL) | 316 | 0.39 (≈ 0.286 µg/mL) | 100 (≈ 73.4 µg/mL) | – | – | 32.3 | –

Continued, in another order:

MIC (Bacillus subtilis) [µM] | MIC (Klebsiella pneumoniae) [µM] | MIC (Streptococcus pneumoniae) [µM] | EC50 (Oryctolagus cuniculus) [nM] | MIC (Staphylococcus aureus) [µM] | MIC (Escherichia coli) [µM] | IC50 (Motilin receptor [1]) [nM] | IC50 (Motilin receptor [2]) [nM] | Structure (SMILES) | MI100 (Canis familiaris [3]) [µg/kg] | MI100 (Canis familiaris [4]) [µg/kg]
6.3 (≈ 4.6 µg/mL) | 200 (≈ 146 µg/mL) | 1.6 (≈ 1.17 µg/mL) | 19.5 | 25 (≈ 18.2 µg/mL) | > 200 | 39.8 | 7.59 | CCC1OC(=O)C(C)C(O[C@H]2C[C@@](C)(OC)[C@@H](O)C(C)O2)C(C)[C@@H](OC2OC(C)CC(N(C)C)[C@H]2O)[C@]2(C)CC(C)=C(O2)[C@H](C)[C@@H](O)[C@]1(C)OC (stereo not given in full) | – | –
> 200 | > 200 | 200 (≈ 152 µg/mL) | 12.9 | > 200 | > 200 | 15.1 | 6.92 | CCC1OC(=O)C(C)C(O[C@H]2C[C@@](C)(OC)[C@@H](O)C(C)O2)C(C)[C@@H](OC2OC(C)CC(N(C)C(C)C)[C@H]2O)[C@]2(C)CC(C)=C(O2)[C@H](C)[C@@H](O)[C@]1(C)OC (stereo not given in full) | 0.44 | 1.2
